Source: ChEMBL document CHEMBL2040769, “Lipase-catalyzed preparation of chromomycin A₃ analogues and biological evaluation for anticancer activity” (Bioorg Med Chem Lett, 2012)
pIC50: −log10 of the molar value.

Columns and labels:
COLO 205 [1] = test: Ratio of IC50 for chromomycin to compound for human COLO205 cells; format: functional
COLO 205 [2] = test: Cytotoxicity against human COLO205 cells relative to chromomycin A3; format: functional; conditions: pooled result: one value given for 4 cell lines, strains, targets or settings
A2780 [3] = test: Cytotoxicity against human A2780 cells; format: functional, cell-based
COLO 205 [4] = test: Cytotoxicity against human COLO205 cells; format: functional, cell-based
A549 = test: Cytotoxicity against human A549 cells; format: functional, cell-based
A2780 [5] = test: Ratio of IC50 for chromomycin to compound for human A2780 cells; format: functional
NIH3T3 = test: Cytotoxicity against mouse NIH/3T3 cells; format: cell-based
BXPC-3 = test: Cytotoxicity against human BxPC3 cells; format: functional, cell-based

Row | Compound | Ratio IC50 (COLO 205 [1]) | Ratio IC50 (COLO 205 [2]) | pIC50 (A2780 [3]) | pIC50 (COLO 205 [4]) | pIC50 (A549) | Ratio IC50 (A2780 [5]) | pIC50 (NIH3T3) | pIC50 (BXPC-3)
1 | C=COC(=O)CCCCC(=O)O[C@H](C)[C@H](O)C(=O)[C@@H](OC)[C@@H]1Cc2cc3cc(O[C@H]4C[C@@H](O[C@@H]5C[C@@H](O)[C@H](OC)[C@@H](C)O5)[C@H](OC(C)=O)[C@@H](C)O4)c(C)c(O)c3c(O)c2C(=O)[C@H]1O[C@H]1C[C@H](O[C@H]2C[C@H](O[C@H]3C[C@@](C)(O)[C@@H](OC(C)=O)[C@H](C)O3)[C@H](O)[C@@H](C)O2)[C@H](O)[C@@H](C)O1 | 8 | 3.2 | 8.30 | 7.92 | 7.52 | 5 | 5.92 | 7.22
2 | CO[C@H]1[C@H](O)C[C@@H](O[C@@H]2C[C@H](Oc3cc4cc5c(c(O)c4c(O)c3C)C(=O)[C@@H](O[C@H]3C[C@H](O[C@H]4C[C@H](O[C@H]6C[C@@](C)(O)[C@@H](OC(C)=O)[C@H](C)O6)[C@H](O)[C@@H](C)O4)[C@H](O)[C@@H](C)O3)[C@H]([C@H](OC)C(=O)[C@@H](O)[C@@H](C)OC(C)=O)C5)O[C@H](C)[C@H]2OC(C)=O)O[C@@H]1C | – | 0.34 | 6.60 | 7.19 | 6.70 | – | 6.10 | 6.35
3 | CCC(=O)O[C@H](C)[C@H](O)C(=O)[C@@H](OC)[C@@H]1Cc2cc3cc(O[C@H]4C[C@@H](O[C@@H]5C[C@@H](O)[C@H](OC)[C@@H](C)O5)[C@H](OC(C)=O)[C@@H](C)O4)c(C)c(O)c3c(O)c2C(=O)[C@H]1O[C@H]1C[C@H](O[C@H]2C[C@H](O[C@H]3C[C@@](C)(O)[C@@H](OC(C)=O)[C@H](C)O3)[C@H](O)[C@@H](C)O2)[C@H](O)[C@@H](C)O1 | – | 0.28 | 6.60 | 6.90 | 6.30 | – | 6.00 | 6.52
4 | CCCC(=O)O[C@H](C)[C@H](O)C(=O)[C@@H](OC)[C@@H]1Cc2cc3cc(O[C@H]4C[C@@H](O[C@@H]5C[C@@H](O)[C@H](OC)[C@@H](C)O5)[C@H](OC(C)=O)[C@@H](C)O4)c(C)c(O)c3c(O)c2C(=O)[C@H]1O[C@H]1C[C@H](O[C@H]2C[C@H](O[C@H]3C[C@@](C)(O)[C@@H](OC(C)=O)[C@H](C)O3)[C@H](O)[C@@H](C)O2)[C@H](O)[C@@H](C)O1 | – | 0.45 | 7.19 | 7.46 | 6.73 | – | 6.12 | 6.35
5 | CCCCCCCCCC(=O)O[C@H](C)[C@H](O)C(=O)[C@@H](OC)[C@@H]1Cc2cc3cc(O[C@H]4C[C@@H](O[C@@H]5C[C@@H](O)[C@H](OC)[C@@H](C)O5)[C@H](OC(C)=O)[C@@H](C)O4)c(C)c(O)c3c(O)c2C(=O)[C@H]1O[C@H]1C[C@H](O[C@H]2C[C@H](O[C@H]3C[C@@](C)(O)[C@@H](OC(C)=O)[C@H](C)O3)[C@H](O)[C@@H](C)O2)[C@H](O)[C@@H](C)O1 | – | 0.17 | 6.43 | 6.60 | 6.30 | – | 6.00 | 6.10
6 | CO[C@@H]1[C@H](O)C[C@@H](O[C@@H]2C[C@H](Oc3cc4cc5c(c(O)c4c(O)c3C)C(=O)[C@@H](O[C@H]3C[C@@H](O[C@H]4C[C@@H](O[C@H]6C[C@](C)(O)[C@@H](OC(C)=O)[C@H](C)O6)[C@H](O)[C@@H](C)O4)[C@H](O)[C@@H](C)O3)[C@H]([C@H](OC)C(=O)[C@@H](O)[C@@H](C)O)C5)O[C@H](C)[C@@H]2OC(C)=O)O[C@@H]1C [CHROMOMYCIN A3] | – | – | 7.40 | 7.20 | 7.00 | – | 6.00 | 6.89
